Test results published in patent US20090239271A1, “FERMENTATION BROTH EXTRACTION OF K-252A” (ABBOTT LABORATORIES, priority 2005, published 2009).

Assay: solubility of K-252a in various solvents at 22° C.
Format: physicochemical

COC(=O)[C@@]1(O)C[C@H]2O[C@]1(C)n1c3ccccc3c3c4c(c5c6ccccc6n2c5c31)C(=O)NC4 [K-252a, methyl (1R,2S,4R)-2,4-(6,7,12,13-tetrahydro-5H-indolo[2,3-a]pyrrolo[3,4-c]carbazol-5-onediyl)-1-hydroxy-2-methyltetrahydrofuran carboxylate]
Solubility (solvent 1% water/acetone): 9.36 mg K-252a/g solvent
Solubility (solvent 5% acetone/methanol): 0.90 mg K-252a/g solvent
Solubility (solvent 10% MTHF/methanol): 1.20 mg K-252a/g solvent
Solubility (solvent 10% acetone/methanol): 1.22 mg K-252a/g solvent
Solubility (solvent 10% water/MTHF (kinetic)): 104.07 mg K-252a/g solvent
Solubility (solvent 10% water/MTHF (thermodynamic)): 31.97 mg K-252a/g solvent
Solubility (solvent 10% water/acetone): 18.25 mg K-252a/g solvent
Solubility (solvent 10% water/methanol): 0.54 mg K-252a/g solvent
Solubility (solvent 20% water/acetone): 17.78 mg K-252a/g solvent
Solubility (solvent 20% water/methyl acetate): >17.7 mg K-252a/g solvent
Solubility (solvent 30% water/acetone): 12.40 mg K-252a/g solvent
Solubility (solvent 50% acetone/methanol): 7.93 mg K-252a/g solvent
Solubility (solvent 75% acetone/methanol): 18.59 mg K-252a/g solvent
Solubility (solvent MTHF): 27.99 mg K-252a/g solvent
Solubility (solvent acetone): 7.99 mg K-252a/g solvent
Solubility (solvent methanol): 0.72 mg K-252a/g solvent
Solubility (solvent methyl acetate): >11.7 mg K-252a/g solvent
